Legend:
Assay type in all cases: cell-based, female Balb/c mice
[1] = in vitro; conditions: spleen cell leukocytes
Protocol: (§1) Measurement of drug-induced cellular cytotoxicity was determined after 48 hours of cell culture with and without conA and with and without test compound or vehicle control. All cell preparations and assay conditions were identical to those described in Assay A. A fluorescence based assay was used to measure cell viability using the carboxyfluorescein derivative 2'-7'-biscarboxyethyl-5 (6)-carboxyfluorecein (BCECF) as a vital dye [Leeder, J. S., Dosch, H. M., Harper, P. A., Lam, P. and S. P. Spielberg, 1989. Anal. Biochem. 177, 364-372]. The membrane permeant, nonfluorescent ester derivitive, BCECF-AM (100 μl of a 2 ug/ml solution in phosphate buffered saline, pH 7.0, Molecular Probes, Eugene, OR) was added to each cell culture and incubated at 37° C. for 30 min. […] The cells were washed and concentrated on the well membrane under low vacuum, and cell associated fluorescence was measured by front surface fluorometry (485/535 nM) in the Screen Machine (Baxter) using an automated protocol. Probit analysis was used to determine viability as a percentage of relative fluorescence units (RFU) compared to control (cells and medium). The dose of test compound that induced at least 50% cellular toxicity, i.e., a 50% reduction in RFU compared to unstimulated control cells, was recorded.

[2] = test system: conA-stimulated T cell proliferation (spleen cells); assay: Assay A: Suppression of Murine Mitogen-Stimulated Proliferation; conditions: conA 1 ug/ml, 3 days culture, MTT readout, n = 2
Excerpt: Assay A: Suppression of Murine Mitogen-Stimulated Proliferation
It is known that lymphocyte activation can be polyclonally stimulated by plant lectins and other mitogenic substances that induce blast transformation and mitosis. The plant lectin concanavalin A (conA) preferentially induces activation and proliferation of T lymphocytes. Exposure of T cells to conA results in polyclonal T cell activation, and this response can be used to determine the in vitro index of immunomodulatory effects of test compounds on pan-T cell activation. Spleen cells were harvested aseptically from female Balb/c mice, and cells were extruded by compression in phosphate buffered saline (pH 7.0). […] The remaining cells were pelleted, resuspended in medium, filtered through a cotton plug to remove debris, and the leukocytes were then counted. […] Inhibition of conA-stimulated T cell proliferation was measured using a colorimetric indicator of cell growth and proliferation, MTT [3-(4,5-dimethylthiazol-2-yl)-2 diphenyltetrazolium bromide; 100 μl of a 1 mg/ml solution per well, SIGMA] […] Light absorbance was measured at a test wavelength of 570 nm and a reference wavelength of 650 nm using a spectrophotometer. […]

[3] = test system: spleen cell leukocytes (cell viability); assay: in vitro; conditions: 48 h
Protocol: as §1

Compound	CC50 at 48 h [1] [µM]	EC50 ([2]; Mus musculus, T-cell, 72 h) [µM]	CC50 [3] [µM]	EC50 [2] [µM]
COc1ccc(CCN(C)CC(O)CC(C#N)(c2ccc(OC)c(OC)c2)C(C)C)cc1OC (racemic) [Example 1-A, α-[3-[[2-(3,4-dimethoxyphenyl)ethyl]methylamino]-2-hydroxypropyl]-3,4-dimethoxy-α-(1-methylethyl)benzeneacetonitrile]	60	12.9 ± 5.75		
COc1ccc(CCN(C)CC(O)CC(C#N)(c2ccc(OC)c(OC)c2)C(C)C)cc1OC (racemic) [Example 1-B, α-[3-[[2-(3,4-dimethoxyphenyl)ethyl]methylamino]-2-hydroxypropyl]-3,4-dimethoxy-α-(1-methylethyl)benzeneacetonitrile]			60	17.9 ± 8.16
